Patent US20100305060A1, “Nucleoside Prodrugs and Uses Thereof” (Ligand Pharmaceuticals Incorporated, priority 2007, published 2010)
pEC50, pIC50: −log10 of the molar value. Like-named read-outs stand apart in the source and are kept apart here.

Legend:
[1] = test system: HCV; conditions: phase 2 study, 1500 mg BID for 14 days; cited from earlier work
[2] = test system: Replicon; conditions: cited from earlier work
[3] = target: T1, Hepatitis C virus NS5B polymerase (Hepatitis C virus genotype 1b, UniProt Q9WMX2); conditions: compound tested as its triphosphate; read-out: NS5b IC50 of NTP; cited from earlier work
T1 construct: Hepatitis C virus NS5B polymerase is an RNA-dependent RNA polymerase (RdRp)

[4] = rat, in vivo, po, 50 mg/kg; cited from earlier work
[5] = rat, in vivo, po, 50 mg/kg
[6] = test system: HCV; conditions: chimpanzee, 7 days, cited from earlier work

T1 sequence (Q9WMX2 2420-3010): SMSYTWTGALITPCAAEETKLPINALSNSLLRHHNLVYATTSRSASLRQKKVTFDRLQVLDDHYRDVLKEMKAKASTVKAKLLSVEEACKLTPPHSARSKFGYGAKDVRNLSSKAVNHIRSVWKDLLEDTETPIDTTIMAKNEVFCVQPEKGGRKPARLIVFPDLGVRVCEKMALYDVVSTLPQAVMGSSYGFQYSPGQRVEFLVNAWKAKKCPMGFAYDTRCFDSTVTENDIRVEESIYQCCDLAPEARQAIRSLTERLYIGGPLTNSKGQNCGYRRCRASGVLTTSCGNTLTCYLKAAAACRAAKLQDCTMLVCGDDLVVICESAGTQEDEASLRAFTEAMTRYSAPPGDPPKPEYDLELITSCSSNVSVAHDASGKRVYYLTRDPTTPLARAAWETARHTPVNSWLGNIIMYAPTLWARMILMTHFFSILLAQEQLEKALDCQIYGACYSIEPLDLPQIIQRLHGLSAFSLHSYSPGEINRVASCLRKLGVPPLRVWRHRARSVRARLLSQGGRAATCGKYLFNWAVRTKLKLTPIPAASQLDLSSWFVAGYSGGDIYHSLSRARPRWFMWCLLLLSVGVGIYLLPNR

CC(C)C(=O)OC[C@@]1(N=[N+]=[N-])O[C@@H](n2ccc(N)nc2=O)[C@H](OC(=O)C(C)C)[C@@H]1OC(=O)C(C)C [Compound 81626]
mean reduction in serum viral titre [1]: 1.2 log10

C[C@@]1(F)[C@H](O)[C@@H](CO)O[C@H]1n1ccc(N)nc1=O [PSI-6130, β-D-2′-deoxy-2′-fluoro-2′-C-methylcytidine]
pEC50 [2]: 6.22
activity in the replicon assay [2]: potent
pIC50 [3]: 6.89

CC(C)OC(=O)[C@H](C)NP(=O)(OC[C@H]1O[C@@H](n2ccc(=O)[nH]c2=O)[C@](C)(F)[C@@H]1O)Oc1ccccc1 (stereo partly drawn) [PSI-7851]
liver triphosphate levels [4]: 2550 ng/g
liver triphosphate level converted to molar units [5]: 5.1 nmol/g

CC(C)[C@H](N)C(=O)O[C@@H]1[C@@H](CO)O[C@@H](n2ccc(N)nc2=O)[C@]1(C)O [NM283]
reduction in viral titre ([6]; 16.6 mg/kg/day): 1.15 log10

COC(=O)[C@H](C)NP(=O)(OC[C@H]1O[C@@H](n2ccc(=O)[nH]c2=O)[C@](C)(F)[C@@H]1O)Oc1ccccc1 (stereo partly drawn) [PSI-7672]
pEC50 [2]: 5.80

C[C@@]1(F)[C@H](O)[C@@H](CO)O[C@H]1n1ccc(=O)[nH]c1=O [RO2433, 2′-deoxy-2′-fluoro-2′-C-methyl-uridine]
pEC50 [2]: < 4.00
activity in the replicon assay [2]: inactive
pIC50 [3]: 6.28

C[C@@]1(O)[C@H](O)[C@@H](CO)O[C@H]1n1ccc2c(N)ncnc21 [MK-0608]
reduction in viral titre ([6]; intravenous 2 mg/kg/day): > 5 log10
